“And” between values parts separate entries of the source, which are not always exact repeats. Identical values can stand only once. Toxic doses and inconclusive results are not listed. No stated cut-off is given here; in the data, active means T/C of 150% or more; inactive means T/C below 125%.
Tested on: L1210 leukemia ip in BDF1 mice, survival T/C
Assay: NCI In Vivo Anticancer Drug Screen. Data for tumor model L1210 Leukemia (intraperitoneal) in B6D2F1 (BDF1) mice
Conditions: endpoint: mean survival time, higher = longer survival
Procedure, shortened: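 In this screen, tumor-bearing mice given compound are compared to those given vehicle, and their survival values are reported as a treated-to-control quotient.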

[1] = dose: 50.0 mg/kg/injection, schedule: Q01DX001 (ip), vehicle: saline
[2] = dose: 50.0 mg/kg/injection, schedule: Q01DX009 (ip), vehicle: Klucel (hydroxypropylcellulose) (HPC)
[3] = dose: 100.0 mg/kg/injection, schedule: Q01DX001 (ip), vehicle: saline
[4] = dose: 100.0 mg/kg/injection, schedule: Q01DX009 (ip), vehicle: Klucel (hydroxypropylcellulose) (HPC)
[5] = dose: 200.0 mg/kg/injection, schedule: Q01DX001 (ip), vehicle: saline
[6] = dose: 200.0 mg/kg/injection, schedule: Q01DX009 (ip), vehicle: Klucel (hydroxypropylcellulose) (HPC)
[7] = dose: 400.0 mg/kg/injection, schedule: Q01DX001 (ip), vehicle: saline
[8] = dose: 100.0 mg/kg/injection, schedule: Q01DX009 (ip), vehicle: saline
[9] = dose: 200.0 mg/kg/injection, schedule: Q01DX009 (ip), vehicle: saline
[10] = dose: 100.0 mg/kg/injection, schedule: Q01DX009 (ip), vehicle: saline with Tween-80
[11] = dose: 100.0 mg/kg/injection, schedule: Q04DX003 (ip), vehicle: saline with Tween-80
[12] = dose: 200.0 mg/kg/injection, schedule: Q01DX009 (ip), vehicle: saline with Tween-80
[13] = dose: 200.0 mg/kg/injection, schedule: Q04DX003 (ip), vehicle: saline with Tween-80
[14] = dose: 75.0 mg/kg/injection, schedule: Q01DX009 (ip), vehicle: Klucel (hydroxypropylcellulose) (HPC)
[15] = dose: 100.0 mg/kg/injection, schedule: Q04DX003 (ip), vehicle: saline
[16] = dose: 200.0 mg/kg/injection, schedule: Q04DX003 (ip), vehicle: saline
[17] = dose: 400.0 mg/kg/injection, schedule: Q04DX003 (ip), vehicle: saline with Tween-80
[18] = dose: 400.0 mg/kg/injection, schedule: Q04DX003 (ip), vehicle: saline
[19] = dose: 100.0 mg/kg/injection, schedule: Q04DX002 (ip), vehicle: Klucel (hydroxypropylcellulose) (HPC)
[20] = dose: 200.0 mg/kg/injection, schedule: Q04DX002 (ip), vehicle: Klucel (hydroxypropylcellulose) (HPC)
[21] = dose: 400.0 mg/kg/injection, schedule: Q04DX002 (ip), vehicle: Klucel (hydroxypropylcellulose) (HPC)
[22] = dose: 400.0 mg/kg/injection, schedule: Q01DX009 (ip), vehicle: Klucel (hydroxypropylcellulose) (HPC)

Measured: T/C

O=c1ccn(Cc2ccccc2)c(SCc2ccccc2)n1
inactive: [1] 105 % of control | [2] 102 % of control | [3] 109 % of control | [4] 95 % of control | [5] 91 % of control | [6] 98 % of control | [7] 105 % of control

O=C(O)COc1ccc(Cl)cc1Cl
inactive: [8] 100 % of control | [9] 100 % of control

CC1(c2cccs2)C(=O)NC(=O)N1C(=O)CCl (stereo not drawn)
inactive: [10] 109 % of control | [11] 103 % of control | [12] 106 % of control | [13] 99 % of control

CCCCOP(=O)(CCl)OCCCC
inactive: [4] 98 % of control | dose: 100.0 mg/kg/injection, schedule: Q04DX003 (ip), vehicle: Klucel (hydroxypropylcellulose) (HPC) 97 % of control | [6] 103 % of control | dose: 200.0 mg/kg/injection, schedule: Q04DX003 (ip), vehicle: Klucel (hydroxypropylcellulose) (HPC) 97 % of control | dose: 400.0 mg/kg/injection, schedule: Q04DX003 (ip), vehicle: Klucel (hydroxypropylcellulose) (HPC) 95 % of control

CCCCCCCC#N
inactive: dose: 100.0 mg/kg/injection, schedule: Q01DX001 (ip), vehicle: saline with Tween-80 92 % of control | dose: 200.0 mg/kg/injection, schedule: Q01DX001 (ip), vehicle: saline with Tween-80 97 % of control | dose: 400.0 mg/kg/injection, schedule: Q01DX001 (ip), vehicle: saline with Tween-80 105 % of control

CON(C)c1nc2ccccc2o1
inactive: [1] 103 % of control | [3] 100 % of control | [5] 100 % of control | [7] 100 % of control

O=C1CCC2CC1CCC2=O
inactive: dose: 18.75 mg/kg/injection, schedule: Q01DX009 (ip), vehicle: Klucel (hydroxypropylcellulose) (HPC) 101 % of control | dose: 18.75 mg/kg/injection, schedule: Q04DX003 (ip), vehicle: Klucel (hydroxypropylcellulose) (HPC) 101 % of control | dose: 37.5 mg/kg/injection, schedule: Q01DX009 (ip), vehicle: Klucel (hydroxypropylcellulose) (HPC) 101 % of control | dose: 37.5 mg/kg/injection, schedule: Q04DX003 (ip), vehicle: Klucel (hydroxypropylcellulose) (HPC) 97 % of control | [14] 98 % of control | dose: 75.0 mg/kg/injection, schedule: Q04DX003 (ip), vehicle: Klucel (hydroxypropylcellulose) (HPC) 97 % of control

CCN(CC)C(=O)Cn1cc(F)c(=O)[nH]c1=O
inactive: [11] 98 % of control | [15] 104 % of control | [13] 101 % of control | [16] 104 % of control | [17] 106 % of control | [18] 98 % of control

CC(CC(=O)C[N+](=O)[O-])=Nc1ccccc1
inactive: [19] 90 % of control | [20] 104 % of control | [21] 97 % of control

Cc1nc2ccccc2n(O)c1=O
inactive: [2] 97 % of control | [4] 93 % of control | [6] 89 % of control

CC(Br)C(=O)NC(C)C(=O)O (stereo not drawn)
inactive: [10] 89 % of control | [12] 86 % of control | dose: 400.0 mg/kg/injection, schedule: Q01DX009 (ip), vehicle: saline with Tween-80 91 % of control

Cc1ccc(NC(=S)/C(=C(\[O-])c2ccc([N+](=O)[O-])cc2)[n+]2ccc(C(C)C)cc2)c(C)c1
inactive: [4] 101 % of control | [6] 98 % of control | [22] 101 % of control

CCOC(=O)CNC(=O)Nc1cccc(Cl)c1Cl
inactive: [4] 102 % of control | [6] 98 % of control | [22] 98 % of control

CC(=O)OCC(=O)[C@@]1(O)CC[C@H]2[C@@H]3CCC4=CC(=O)C=C[C@]4(C)[C@H]3C(=O)C[C@@]21C
inactive: dose: 12.5 mg/kg/injection, schedule: Q01DX009 (ip), vehicle: Klucel (hydroxypropylcellulose) (HPC) 93 % of control | dose: 25.0 mg/kg/injection, schedule: Q01DX009 (ip), vehicle: Klucel (hydroxypropylcellulose) (HPC) 98 % of control | [2] 103 % of control | [14] 100 % of control | dose: 115.0 mg/kg/injection, schedule: Q01DX009 (ip), vehicle: Klucel (hydroxypropylcellulose) (HPC) 98 % of control | dose: 170.0 mg/kg/injection, schedule: Q01DX009 (ip), vehicle: Klucel (hydroxypropylcellulose) (HPC) 103 % of control | dose: 255.0 mg/kg/injection, schedule: Q01DX009 (ip), vehicle: Klucel (hydroxypropylcellulose) (HPC) 86 % of control

COc1ccc(NC(=O)/C=C/C(=O)O)cc1
inactive: [19] 103 % of control | [20] 95 % of control | [21] 120 % of control

COc1ccc(N(C=O)N=O)cc1
inactive: dose: 75.0 mg/kg/injection, schedule: Q01DX001 (ip), vehicle: other 90 % of control | dose: 150.0 mg/kg/injection, schedule: Q01DX001 (ip), vehicle: other 93 % of control

C[N+](C)(C)CCS(=O)(=O)c1ccc(Cl)cc1
inactive: dose: 100.0 mg/kg/injection, schedule: Q04DX002 (ip), vehicle: saline 90 % of control

COC(=O)C1(C(=O)OC)C2CC=C(C)CC21 (stereo not drawn)
inactive: dose: 100.0 mg/kg/injection, schedule: Q01DX009 (ip), vehicle: acetone 100 % of control | dose: 200.0 mg/kg/injection, schedule: Q01DX009 (ip), vehicle: acetone 98 % of control | dose: 400.0 mg/kg/injection, schedule: Q01DX009 (ip), vehicle: acetone 90 % of control

C=CCN(CC=C)C(=O)C1C2CC3OC(=O)C1C3C2 (stereo not drawn)
inactive: [15] 94 % of control and 104 % of control | [16] 109 % of control and 104 % of control | [18] 94 % of control and 102 % of control

Cc1cccc(CNCC(=O)O)c1
inactive: [8] 105 % of control | [15] 92 % of control | [9] 92 % of control | [16] 98 % of control | dose: 400.0 mg/kg/injection, schedule: Q01DX009 (ip), vehicle: saline 105 % of control | [18] 98 % of control

Cc1cc(C(=O)Nc2ccc(NC3=NCCN3)cc2)cc(C(=O)Nc2ccc(NC3=NCCN3)cc2)c1
inactive: dose: 3.0 mg/kg/injection, schedule: Q01DX Z (ip), vehicle: saline 103 % of control | dose: 6.0 mg/kg/injection, schedule: Q01DX Z (ip), vehicle: saline 103 % of control | dose: 12.0 mg/kg/injection, schedule: Q01DX Z (ip), vehicle: saline 100 % of control | dose: 15.0 mg/kg/injection, schedule: Q01DX Z (ip), vehicle: saline 110 % of control

O=C(Nc1cccc(Cl)c1)c1ccc(Cl)c(Cl)c1
inactive: [19] 110 % of control | [20] 113 % of control | [21] 93 % of control

Cc1ccccc1/C=N/Nc1nnc(N/N=C/c2ccccc2C)c2ccccc12
inactive: dose: 100.0 mg/kg/injection, schedule: Q01DX001 (ip), vehicle: carboxymethylcellulose (CMC) 91 % of control | dose: 200.0 mg/kg/injection, schedule: Q01DX001 (ip), vehicle: carboxymethylcellulose (CMC) 109 % of control | dose: 400.0 mg/kg/injection, schedule: Q01DX001 (ip), vehicle: carboxymethylcellulose (CMC) 95 % of control

CC(C)(Br)C(=O)c1ccc(Cl)s1
inactive: [11] 96 % of control | [13] 107 % of control | [17] 105 % of control

CCOC(=O)CNc1cc(C)ccc1C
inactive: [19] 95 % of control | [20] 98 % of control | [21] 95 % of control

Reference: PubChem BioAssay AID248 (DTP/NCI, 2004)
